Source: patent US20240376123A1, “KRAS G12D INHIBITORS AND USES THEREOF” (SUZHOU ZANRONG PHARMA LIMITED, priority 2021, published 2024)
Where two headings read alike, the source gives them in different places.

System: p-ERK in PNAC-1/HPAC cell
Experiment: Phospho-ERK 1/2 assay (Table 1)
Type: cell-based
Protocol: Allow PNAC-1/HPAC cell growth in a T75 flask in DMEM and 10% 1 fetal calf serum (FCS; Gibco), using standard tissue culture procedures until ˜80% confluency is achieved. Day 1, seed 6000 cells/well in 384 well plate and incubate at 37° C., 5% CO2. Add diluted compound by Echo 550, final DMSO is 0.5%, incubate cells at 37° C., 5% CO2 for 3 hours. Then, remove medium and fix cells with 3.7% formaldehyde in PBS (PFA) by Apricot. Wash with PBS once. Permeabilize cells with cold 100% methanol and repeat wash once with PBS once. Add Li-Cor blocking buffer to each well and incubate 1.5 hours at RT. Remove blocking buffer and add primary antibody mixture (rabbit anti pERK, mouse anti GAPDH). Incubate at 4° C. overnight. Day 2, wash with PBST (Tween-20 in PBS) with total 3 times and then add secondary antibody mixture (goat anti rabbit 800CW (1:800 dilution in the combined solution) and goat anti mouse 680RD (1:800 dilution in the combined solution)), incubate for 60 minutes at RT away from light. Repeat washing with PBST 3 times. After final wash, centrifuge plate up-side-down at 1000 rpm to remove wash solution completely from wells. Before plate scanning, clean the bottom plate surface and the Odyssey* Imager scanning bed (if applicable) with moist, lint-free tissue to avoid any obstructions during scanning. Scan plate with detection in both 700 and 800 nm channels.

[1] = Homo sapiens, PNAC-1/HPAC cell, 3 hours compound incubation, read-out: p-ERK IC50

| Structure (SMILES) | IC50 [1] | also measured |
| --- | --- | --- |
| C#Cc1c(F)ccc2cccc(-c3nc4c5c(nc(OC[C@@]67CCCN6C[C@H](F)C7)nc5c3F)N3CC5CCC(N5)[C@@H]3CO4)c12 (single isomer, unassigned) [Compound 9] | 308 nM |  |
| C#Cc1c(F)ccc2cccc(-c3nc4c5c(nc(OC[C@@H]6C[C@@H](F)CN6C)nc5c3F)N3CC5CCC(N5)[C@H]3CO4)c12 (stereo in doubt) [Compound 32, (5aS,6R,9S)-2-(8-ethynyl-7-fluoronaphthalen-1-yl)-1-fluoro-12-(((2S,4R)-4-fluoro-1-methylpyrrolidin-2-yl)methoxy)-5a,6,7,8,9,10-hexahydro-5H-4-oxa-3,10a,11,13,14-pentaaza-6,9-methanonaphtho[1,8-ab]heptalene] | 140 nM |  |
| C#Cc1c(F)ccc2cccc(-c3nc4c5c(nc(C(=O)N[C@H](C)CN(C)C)nc5c3F)N3CC5CCC(N5)[C@H]3CO4)c12 (stereo in doubt) [Compound 33, (5aS,6R,9S)—N—((R)-1-(dimethylamino)propan-2-yl)-2-(8-ethynyl-7-fluoronaphthalen-1-yl)-1-fluoro-5a,6,7,8,9,10-hexahydro-5H-4-oxa-3,10a,11,13,14-pentaaza-6,9-methanonaphtho[1,8-ab]heptalene-12-carboxamide] | 75 nM |  |
| [2H]C#Cc1c(F)ccc2cccc(-c3nc4c5c(nc(OC[C@@]67CCCN6C[C@H](F)C7)nc5c3F)N3CC5CCC(N5)[C@H]3CO4)c12 (stereo in doubt) [Compound 34, (5aS,6R,9S)-2-(8-(ethynyl-d)-7-fluoronaphthalen-1-yl)-1-fluoro-12-(((2R,7aS)-2-fluorotetrahydro-1H-pyrrolizin-7a(5H)-yl)methoxy)-5a,6,7,8,9,10-hexahydro-5H-4-oxa-3,10a,11,13,14-pentaaza-6,9-methanonaphtho[1,8-ab]heptalene] | 5 nM |  |
| C#Cc1c(F)ccc2cccc(-c3nc4c5c(nc(OCC67CCCN6C(COC(=O)N(C)C)CC7)nc5c3F)N3CC5CCC(N5)[C@H]3CO4)c12 (stereo in doubt) [Compound 37, (7a-((((5aS,6R,9S)-2-(8-ethynyl-7-fluoronaphthalen-1-yl)-1-fluoro-5a,6,7,8,9,10-hexahydro-5H-4-oxa-3,10a,11,13,14-pentaaza-6,9-methanonaphtho[1,8-ab]heptalen-12-yl)oxy)methyl)hexahydro-1H-pyrrolizin-3-yl)methyl dimethylcarbamate] |  | IC50 (Homo sapiens, HPAC, 3 h, read-out: p-ERK IC50, PNAC-1/HPAC cell, 3 hours compound incubation): 50 nM |
| C#Cc1c(F)ccc2cccc(-c3nc4c5c(nc(OCC67CCCN6C(COC(=O)N(C)C)CC7)nc5c3F)N3CC5CCC(N5)[C@H]3CO4)c12 (stereo in doubt) [Compound 38, (7a-((((5aS,6R,9S)-2-(8-ethynyl-7-fluoronaphthalen-1-yl)-1-fluoro-5a,6,7,8,9,10-hexahydro-5H-4-oxa-3,10a,11,13,14-pentaaza-6,9-methanonaphtho[1,8-ab]heptalen-12-yl)oxy)methyl)hexahydro-1H-pyrrolizin-3-yl)methyl dimethylcarbamate] |  | IC50 (read-out: p-ERK IC50, PNAC-1/HPAC cell, 3 hours compound incubation): 70 nM |
| C#Cc1c(F)ccc2cccc(-c3nc4c5c(nc(OCC6(CN7CCOC8(CC8)C7)CC6)nc5c3F)N3CC5CCC(N5)[C@H]3CO4)c12 (stereo in doubt) [Compound 46, (5aS,6R,9S)-12-((1-((4-oxa-7-azaspiro[2.5]octan-7-yl)methyl)cyclopropyl)methoxy)-2-(8-ethynyl-7-fluoronaphthalen-1-yl)-1-fluoro-5a,6,7,8,9,10-hexahydro-5H-4-oxa-3,10a,11,13,14-pentaaza-6,9-methanonaphtho[1,8-ab]heptalene] | 328 nM |  |
| C#Cc1c(F)ccc2cccc(-c3nc4c5c(nc(OCC67CCCN6C(COC(=O)N6CCOCC6)CC7)nc5c3F)N3CC5CCC(N5)[C@H]3CO4)c12 (stereo in doubt) [Compound 47, (7a-((((5aS,6R,9S)-2-(8-ethynyl-7-fluoronaphthalen-1-yl)-1-fluoro-5a,6,7,8,9,10-hexahydro-5H-4-oxa-3,10a,11,13,14-pentaaza-6,9-methanonaphtho[1,8-ab]heptalen-12-yl)oxy)methyl)hexahydro-1H-pyrrolizin-3-yl)methyl morpholine-4-carboxylate] | 105 nM |  |
| C#Cc1c(F)ccc2cccc(-c3nc4c5c(nc(OCC6(CN7C8CCC7COC8)CC6)nc5c3F)N3CC5CCC(N5)[C@H]3CO4)c12 (stereo in doubt) [Compound 49, (5aS,6R,9S)-12-((1-((3-oxa-8-azabicyclo[3.2.1]octan-8-yl)methyl)cyclopropyl)methoxy)-2-(8-ethynyl-7-fluoronaphthalen-1-yl)-1-fluoro-5a,6,7,8,9,10-hexahydro-5H-4-oxa-3,10a,11,13,14-pentaaza-6,9-methanonaphtho[1,8-ab]heptalene] | 851 nM |  |
| Cc1cc(N)nc(-c2nc3c4c(nc(OC[C@@]56CCCN5C[C@H](F)C6)nc4c2F)N2CC4CCC(N4)[C@H]2CO3)c1C(F)(F)F (stereo in doubt) [Compound 53, 6-((5aS,6R,9S)-1-fluoro-12-(((2R,7aS)-2-fluorotetrahydro-1H-pyrrolizin-7a(5H)-yl)methoxy)-5a,6,7,8,9,10-hexahydro-5H-4-oxa-3,10a,11,13,14-pentaaza-6,9-methanonaphtho[1,8-ab]heptalen-2-yl)-4-methyl-5-(trifluoromethyl) pyridin-2-amine] | 457 nM |  |
| Oc1cc(-c2nc3c4c(nc(OC[C@@]56CCCN5C[C@H](F)C6)nc4c2F)N2C[C@@H]4CC[C@@H](N4)C2CO3)c2c(Cl)cccc2c1 (stereo partly drawn) [Compound 1, 5-Chloro-4-((6R,9S)-1-fluoro-12-(((2R,7aS)-2-fluorotetrahydro-1H-pyrrolizin-7a(5H)-yl)methoxy)-5a,6,7,8,9,10-hexahydro-5H-4-oxa-3,10a,11,13,14-pentaaza-6,9-methanonaphtho[1,8-ab]heptalen-2-yl)naphthalen-2-ol] | 33 nM |  |
| Oc1cc(-c2nc3c4c(nc(OCC56CCCN5CCC6)nc4c2F)N2C[C@@H]4CC[C@@H](N4)C2CO3)c2c(Cl)cccc2c1 (stereo partly drawn) [Compound 2, 5-chloro-4-((6R,9S)-1-fluoro-12-((tetrahydro-1H-pyrrolizin-7a(5H)-yl)methoxy)-5a,6,7,8,9,10-hexahydro-5H-4-oxa-3,10a,11,13,14-pentaaza-6,9-methanonaphtho[1,8-ab]heptalen-2-yl)naphthalen-2-ol] | 730 nM |  |
| Oc1cc(-c2nc3c4c(nc(OC[C@@]56CCCN5C[C@H](F)C6)nc4c2F)N2C[C@@H]4CC[C@@H](N4)C2CO3)c2cc(F)ccc2c1 (stereo partly drawn) [Compound 3, 6-fluoro-4-((6R,9S)-1-fluoro-12-(((2R,7aS)-2-fluorotetrahydro-1H-pyrrolizin-7a(5H)-yl)methoxy)-5a,6,7,8,9,10-hexahydro-5H-4-oxa-3,10a,11,13,14-pentaaza-6,9-methanonaphtho[1,8-ab]heptalen-2-yl)naphthalen-2-ol] | 26 nM |  |
| CCc1c(F)ccc2cccc(-c3nc4c5c(nc(OC[C@@]67CCCN6C[C@H](F)C7)nc5c3F)N3C[C@@H]5CC[C@@H](N5)C3CO4)c12 (stereo partly drawn) [Compound 4, (6R,9S)-2-(8-ethyl-7-fluoronaphthalen-1-yl)-1-fluoro-12-(((2R,7aS)-2-fluorotetrahydro-1H-pyrrolizin-7a(5H)-yl)methoxy)-5a,6,7,8,9,10-hexahydro-5H-4-oxa-3,10a,11,13,14-pentaaza-6,9-methanonaphtho[1,8-ab]heptalene] | 121 nM |  |
| C#Cc1cccc2cc(O)cc(-c3nc4c5c(nc(OC[C@@]67CCCN6C[C@H](F)C7)nc5c3F)N3C[C@@H]5CC[C@@H](N5)C3CO4)c12 (stereo partly drawn) [Compound 5, 5-ethynyl-4-((6R,9S)-1-fluoro-12-(((2R,7aS)-2-fluorotetrahydro-1H-pyrrolizin-7a(5H)-yl)methoxy)-5a,6,7,8,9,10-hexahydro-5H-4-oxa-3,10a,11,13,14-pentaaza-6,9-methanonaphtho[1,8-ab]heptalen-2-yl)naphthalen-2-ol] | 77 nM |  |
| Oc1cc(-c2nc3c4c(nc(OC[C@@]56CCCN5C[C@H](F)C6)nc4c2F)N2C[C@@H]4CC[C@@H](N4)C2CO3)c2c(F)cccc2c1 (stereo partly drawn) [Compound 6, 5-fluoro-4-((6R,9S)-1-fluoro-12-(((2R,7aS)-2-fluorotetrahydro-1H-pyrrolizin-7a(5H)-yl)methoxy)-5a,6,7,8,9,10-hexahydro-5H-4-oxa-3,10a,11,13,14-pentaaza-6,9-methanonaphtho[1,8-ab]heptalen-2-yl)naphthalen-2-ol] | 86 nM |  |
| C#Cc1c(F)ccc2cc(O)cc(-c3nc4c5c(nc(OC[C@@]67CCCN6C[C@H](F)C7)nc5c3F)N3C[C@@H]5CC[C@@H](N5)C3CO4)c12 (stereo partly drawn) [Compound 7, 5-ethynyl-6-fluoro-4-((6R,9S)-1-fluoro-12-(((2R,7aS)-2-fluorotetrahydro-1H-pyrrolizin-7a(5H)-yl)methoxy)-5a,6,7,8,9,10-hexahydro-5H-4-oxa-3,10a,11,13,14-pentaaza-6,9-methanonaphtho[1,8-ab]heptalen-2-yl)naphthalen-2-ol] | 34 nM |  |
| C#Cc1c(F)ccc2cccc(-c3nc4c5c(nc(OC[C@@]67CCCN6C[C@H](F)C7)nc5c3F)N3CC5CCC(N5)C3CO4)c12 (stereo partly drawn) [Compound 8, (6R,9S)-2-(8-ethynyl-7-fluoronaphthalen-1-yl)-1-fluoro-12-(((2R,7aS)-2-fluorotetrahydro-1H-pyrrolizin-7a(5H)-yl)methoxy)-5a,6,7,8,9,10-hexahydro-5H-4-oxa-3,10a,11,13,14-pentaaza-6,9-methanonaphtho[1,8-ab]heptalene] | 9 nM |  |
